From patent US20250011288A1 (BRISTOL-MYERS SQUIBB COMPANY, priority 2021, published 2025) come the findings set out here.

The structures appear in SMILES notation.

This experiment concerns the target T1, human RXFP1 (Homo sapiens, UniProt Q9HBX9).
T1 construct: expressed in transfected cells
T1 sequence (Q9HBX9 1-757): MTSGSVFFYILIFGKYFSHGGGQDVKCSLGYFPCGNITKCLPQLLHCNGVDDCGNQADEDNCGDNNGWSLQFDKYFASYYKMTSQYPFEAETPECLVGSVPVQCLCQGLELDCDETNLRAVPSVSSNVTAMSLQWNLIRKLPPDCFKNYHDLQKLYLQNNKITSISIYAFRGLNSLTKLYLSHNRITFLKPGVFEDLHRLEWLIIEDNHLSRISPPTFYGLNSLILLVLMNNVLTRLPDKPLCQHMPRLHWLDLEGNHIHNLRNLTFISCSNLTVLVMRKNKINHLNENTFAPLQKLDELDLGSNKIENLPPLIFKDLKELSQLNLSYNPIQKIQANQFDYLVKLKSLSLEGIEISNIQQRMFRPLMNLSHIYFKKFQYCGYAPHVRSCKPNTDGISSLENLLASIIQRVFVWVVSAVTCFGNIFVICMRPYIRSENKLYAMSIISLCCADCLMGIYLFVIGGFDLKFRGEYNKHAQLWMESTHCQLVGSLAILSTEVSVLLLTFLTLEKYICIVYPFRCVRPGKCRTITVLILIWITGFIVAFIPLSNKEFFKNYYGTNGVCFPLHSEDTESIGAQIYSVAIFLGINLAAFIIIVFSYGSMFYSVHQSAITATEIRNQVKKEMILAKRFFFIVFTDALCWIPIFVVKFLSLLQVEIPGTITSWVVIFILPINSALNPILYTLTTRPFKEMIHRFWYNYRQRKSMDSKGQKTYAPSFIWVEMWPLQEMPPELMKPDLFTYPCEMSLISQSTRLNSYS
In words: human RXFP1 (hRXFP1) HEK293 cAMP assay (HTRF). The experiment is classed as cell-based. To be noted: HEK293 cells stably expressing human RXFP1, 30 min at room temperature. The procedure: RXFP1 Cyclic Adenosine Monophosphate (cAMP) Assays. […] Cells were dissociated and suspended in assay buffer. The assay buffer was HBSS buffer (with calcium and magnesium) containing 20 mM HEPES, 0.05% BSA, and 0.5 mM IBMX. Cells (3000 cells per well, except 1500 cell per well for HEK293 cells stably expressing human RXFP1) were added to 384-well Proxiplates (Perkin-Elmer). Cells were immediately treated with test compounds in DMSO (2% final) at final concentrations in the range of 0.010 nM to 50 µM. Cells were incubated for 30 min at room temperature. The level of intracellular cAMP was determined using the HTRF HiRange cAMP assay reagent kit (Cisbio) according to manufacturer's instructions. Solutions of cryptate conjugated anti-cAMP and d2 fluorophore-labelled cAMP were made in a supplied lysis buffer separately. Upon completion of the reaction, the cells were lysed with equal volume of the d2-cAMP solution and anti-cAMP solution. […] The potency and activity of a compound to […] cAMP production was then determined by fitting to a 4-parametric logistic equation from a plot of cAMP level versus compound concentrations.
Background: cAMP levels reflect the balance of adenylyl cyclase and phosphodiesterase activity.
For orientation: EC50 means the midpoint of the concentration-response curve. High values mean lower potency in that assay, low ones higher potency in that assay. `COc1ncc(C#CCO)cc1C(=O)N[C@@H]1C2CCC(/C2=C/C(F)(F)F)[C@@H]1C(=O)Nc1ccc(F)c(C(F)(F)F)c1` (stereo partly drawn) [Example 49, N-[(2R,3S,7Z)-3-{[4-fluoro-3-(trifluoromethyl)phenyl]carbamoyl}-7-(2,2,2-trifluoroethylidene)bicyclo[2.2.1]heptan-2-yl]-5-(3-hydroxyprop-1-yn-1-yl)-2-methoxypyridine-3-carboxamide] returned an EC50 of 153 nM. As for `Cn1c(=O)c(C(=O)N[C@@H]2C3CCC(/C3=C/C(F)(F)F)[C@@H]2C(=O)Nc2ccc(F)c(C(F)(F)F)c2)cc2ccccc21` (stereo partly drawn) [Example 15, N-[(2R,3S,7Z)-3-{[4-fluoro-3-(trifluoromethyl)phenyl]carbamoyl}-7-(2.2,2-trifluoroethylidene)bicyclo[2. 2.1]heptan-2-yl]-1-methyl-2-oxo-1,2-dihydroquinoline-3-carboxamide], a half-maximal response (EC50) required 3500 nM. Under `COc1ncc(C2=NOC3CC(CO)CC23)cc1C(=O)N[C@H]1[C@@H](C(=O)Nc2ccc(F)c(C(F)(F)F)c2)[C@H]2CC[C@@H]1/C2=C\c1cscn1` (stereo partly drawn) [Example 97, N-((1R,2R,3S,4R,Z)-3-((4-fluoro-3-(trifluoromethyl)phenyl)carbamoyl)-7-(thiazol-4-ylmethylene)bicyclo [2.2.1]heptan-2-yl)-5-(5-(hydroxymethyl)-3a,5,6,6a-tetrahydro-4H-cyclopenta[d]isoxazol-3-yl)-2-methoxy-nicotinamide] stands 3.1 nM. Under `COc1ncc(C2=NOC3CC(CO)CC23)cc1C(=O)N[C@H]1[C@@H](C(=O)N[C@H](C)C2(C)CC2(F)F)[C@H]2CC[C@@H]1/C2=C\C(F)(F)F` (stereo partly drawn) [Example 116, N-((1R,2R,3S,4R,Z)-3-(((1R)-1-(2,2-difluoro-1-methylcyclopropyl)ethyl)carbamoyl)-7-(2,2,2-trifluoroethylidene)bicyclo[2.2.1]heptan-2-yl)-5-(5-(hydroxymethyl)-3a,5,6,6a-tetrahydro-4H-cyclopenta[d]isoxazol-3-yl)-2-methoxynicotinamide] stands 2.7 nM; under `O=C(N[C@@H]1C2CCC(/C2=C/C2CC2)[C@@H]1C(=O)Nc1ccc(F)c(C(F)(F)F)c1)c1cncc(C2=NOC3COCC23)c1` (single isomer, unassigned) [Example 62], 2400 nM; under `CCC(O)C1CC2ON=C(c3cnc(OC)c(C(=O)N[C@H]4[C@@H](C(=O)Nc5ccc(F)c(C(F)(F)F)c5)[C@H]5CC[C@@H]4/C5=C\C4CC4)c3)C2C1` (stereo partly drawn) [Example 113, N-((1R,2R,3S,4R,Z)-7-(cyclopropyl-methylene)-3-((4-fluoro-3-(trifluoromethyl)phenyl)carbamoyl)bicyclo[2.2.1]heptan-2-yl)-5-(5-(1-hydroxypropyl)-3a,5,6,6a-tetrahydro-4H-cyclopenta[d]isoxazol-3-yl)-2-methoxynicotinamide], 4.3 nM.

In turn, `COc1cnccc1C(=O)N[C@@H]1C2CCC(C2=C(C)C)[C@@H]1C(=O)Nc1ccc(F)c(C(F)(F)F)c1` (stereo partly drawn) [Example 6, N-[(2R,3S)-3-{[4-fluoro-3-(trifluoromethyl)phenyl]carbamoyl}-7-(propan-2-ylidene)bicyclo [2.2.1]heptan-2-yl]-3-methoxypyridine-4-carboxamide] returned an EC50 of 1100 nM. As for `COc1ncc(Br)cc1C(=O)N[C@@H]1C2CCC(C2=C(C)C)[C@@H]1C(=O)Nc1ccc(F)c(C(F)(F)F)c1` (stereo partly drawn) [Example 1, 5-bromo-N-[(2R,3S)-3-{[4-fluoro-3-(trifluoromethyl)phenyl]carbamoyl}-7-(propan-2-ylidene)bicyclo[2.2.1]heptan-2-yl]-2-methoxypyridine-3-carboxamide], the EC50 amounted to 710 nM. Under `COc1ncc(Cl)cc1C(=O)N[C@@H]1C2CCC(/C2=C/C(F)(F)F)[C@@H]1C(=O)Nc1ccc(F)c(C(F)(F)F)c1` (stereo partly drawn) [Example 11, 5-chloro-N-[(2R,3S,7Z)-3-{[4-fluoro-3-(trifluoromethyl)phenyl]carbamoyl}-7-(2,2,2-trifluoroethylidcne)bicyclo[2. 2.1]heptan-2-yl]-2-methoxypyridine-3-carboxamide] stands 940 nM; under `COc1ncc(C(=O)N2CC3(COC3)C2)cc1C(=O)N[C@H]1[C@@H](C(=O)Nc2ccc(F)c(C(F)(F)F)c2)[C@H]2CC[C@@H]1/C2=C\C1CC1` [Example 76, N-[(1R,2R, 3S,4R,7Z)-7-(cyclopropyl-methylidene)-3-{[4-fluoro-3-(trifluoromethyl)phenyl]carbamoyl}bicyclo[2.2.1]heptan-2-yl]-2-methoxy-5-{2-oxa-6-azaspiro[3.3]heptane-6-carbonyl}pyridine-3-carboxamide], 65 nM. Under `CC(C)=C1C2CCC1[C@H](C(=O)Nc1ccc(F)c(C(F)(F)F)c1)[C@@H]2NC(=O)c1cc(C#N)ccn1` (stereo partly drawn) [Example 3, 4-cyano-N-[(2R,3S)-3-{[4-fluoro-3-(trifluoromethyl)phenyl]carbamoyl}-7-(propan-2-ylidene)bicyclo [2.2.1]heptan-2-yl]pyridine-2-carboxamide] stands 440 nM. `O=C(N[C@@H]1C2CCC(/C2=C/C(F)(F)F)[C@@H]1C(=O)Nc1ccc(F)c(C(F)(F)F)c1)c1nc(Br)cnc1OCCO` (stereo partly shown) [Example 48] gave a concentration for a half-maximal effect (EC50) of 880 nM. In the case of `COc1cc2c(cc1C(=O)N[C@@H]1C3CCC(/C3=C/C3CC3)[C@@H]1C(=O)Nc1ccc(F)c(C(F)(F)F)c1)CN(CCCO)CC2` (stereo partly drawn) [Example 86, N-[(1R,2R,3S,4R)-7-(cyclopropyl-methylidene)-3-{[4-fluoro-3-(trifluoromethyl)phenyl]carbamoyl}bicyclo[2.2.1]heptan-2-yl]-2-(3-hydroxypropyl)-6-methoxy-1,2,3,4-tetrahydroiso-quinoline-7-carboxamide], the EC50 came to 240 nM. Compound `COc1ncc(C2=NOC3COCC23)cc1C(=O)N[C@H]1[C@@H](C(=O)N[C@H](C)C2(C)CC2)[C@H]2CC[C@@H]1/C2=C\C1CC1` (stereo partly drawn) [Example 137, N-((1R,2R,3S,4R,Z)-7-(cyclopropyl-methylene)-3-(((R)-1-(1-methylcyclopropyl)ethyl)carbamoyl)bicyclo[2.2.1]heptan-2-yl)-2-methoxy-5-(3a,4,6,6a-tetrahydrofuro[3,4-d]isoxazol-3-yl)nicotinamide] came in with an EC50 of 3 nM. `COc1ncc(C2=NOC3CC(O)CC23)cc1C(=O)N[C@H]1[C@@H](C(=O)Nc2ccc(F)c(C(F)(F)F)c2)[C@H]2CC[C@@H]1/C2=C\CCC(F)(F)F` (stereo partly drawn) [Example 121, N-((1R,2R,3S,4R,Z)-3-((4-fluoro-3-(trifluoromethyl)phenyl)carbamoyl)-7-(4,4,4-trifluorobutylidene)bicyclo[2.2.1]heptan-2-yl)-5-(5-hydroxy-3a,5,6,6a-tetrahydro-4H-cyclopenta[d]isoxazol-3-yl)-2-methoxynicotinamide] came in with a 50% effective concentration (EC50) of 1.3 nM. Against the preceding compound, the EC50 is about 2.3-fold lower.

In the case of `CC(C)(O)CN1CC2ON=C(c3cc4c(c(C(=O)N[C@H]5[C@@H](C(=O)Nc6ccc(F)c(C(F)(F)F)c6)[C@H]6CC[C@@H]5/C6=C\C5CC5)c3)OC(C)(C)C4)C2C1` (stereo partly drawn) [Example 179, N-[(1R,2R,3S,4R, 7Z)-7-(cyclopropyl-methylidene)-3-{[4-fluoro-3-(trifluoromethyl)phenyl]carbamoyl}bicyclo[2.2.1]heptan-2-yl]-5-[5-(2-hydroxy-2-methylpropyl)-3aH,4H,5H,6H, 6aH-pyrrolo[3,4-d][1,2]oxazol-3-yl]-2,2-dimethyl-2,3-dihydro-1-benzofuran-7-carboxamide], the response was half-maximal at 6.5 nM (EC50).
